# Starred links: 1 amine or outer side, 2 acyl side, 3 side chain; linkers in the order of their positions; H or OH if unused. Positions of bridges follow the written chain, without caps; N, C: chain ends. Non-standard residues stand in square brackets, D forms with d. Residues, ends and D or L forms follow the SMILES beside them. *: point of attachment. Bip(4'-(3-HOOC-benzamido)) = N[C@@H](Cc1ccc(-c2ccc(NC(=O)c3cccc(C(=O)O)c3)cc2)cc1)C(=O)O; Bip(4'-NHBz) = N[C@@H](Cc1ccc(-c2ccc(NC(=O)c3ccccc3)cc2)cc1)C(=O)O; Bip(4'-NH) = O=C([C@H](Cc1ccc(-c2ccc(N[*:3])cc2)cc1)N[*:1])[*:2]; Indazole3carbonyl(1-CH2COOH) = O=C(O)Cn1nc(C(=O)*)c2ccccc21; X54 = N=C(NCCC[C@@H](N[*:1])C(=O)[*:2])NCc1cccc(-n2ccnc2)c1; Bip(4'-COOH) = N[C@@H](Cc1ccc(-c2ccc(C(=O)O)cc2)cc1)C(=O)O; Bip(4'-NHAc) = CC(=O)Nc1ccc(-c2ccc(C[C@H](N)C(=O)O)cc2)cc1; X8 = N=C(NCCC[C@@H](N[*:1])C(=O)[*:2])NCCc1ccc(CN)cc1; Ala(morpholin-4-yl) = N[C@@H](CN1CCOCC1)C(=O)O; Bip = N[C@@H](Cc1ccc(-c2ccccc2)cc1)C(=O)O; Abu(3S-NH2) = C[C@H](N)[C@H](N)C(=O)O; Hyp = O=C(O)[C@@H]1C[C@@H](O)CN1; 2Pal = N[C@@H](Cc1ccccn1)C(=O)O; Tic = O=C(O)[C@@H]1Cc2ccccc2CN1; Cha = N[C@@H](CC1CCCCC1)C(=O)O; d(αMeP) = C[C@]1(C(=O)O)CCCN1; Sar = CNCC(=O)O
# Target: TNFα (Homo sapiens, UniProt P01375)
# Assay: TNF-Induced HEK-Blue Assay
# Type: cell-based
# Settings: not given
# Chain of TNFα (P01375 77-233 limits assumed): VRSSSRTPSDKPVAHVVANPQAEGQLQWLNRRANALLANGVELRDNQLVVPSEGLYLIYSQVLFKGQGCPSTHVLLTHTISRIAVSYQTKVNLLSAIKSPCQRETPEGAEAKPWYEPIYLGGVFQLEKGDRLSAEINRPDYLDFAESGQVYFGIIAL
row,Structure (SMILES),IC50 [µM]
1,CC(C)C[C@@H]1NC(=O)[C@H](CCCNC(=N)N)NC(=O)[C@H](C(C)C)NC(=O)[C@@H]2CCCN2C(=O)[C@H](C(C)C)NC(=O)[C@@H](CCCNC(=N)NCCc2ccc(CN)cc2)NC(=O)[C@H](CC(=O)O)NC(=O)[C@@H]2CCCN2C(=O)CN(C)C(=O)[C@H](Cc2ccc(-c3ccc(NC(=O)c4nn(CC(=O)O)c5ccccc45)cc3)cc2)NC(=O)[C@H](Cc2ccc(-c3ccccc3)cc2)NC(=O)[C@H](CN2CCOCC2)NC(=O)CSC[C@@H](C(=O)NCC(N)=O)NC1=O [Example 429] ({CH2CO}-[Ala(morpholin-4-yl)][Bip][Bip(4'-NH)](Indazole3carbonyl(1-CH2COOH))[Sar]PD[X8]VPVRLCG-NH2; thioether N-13),0.2 to 2
2,CC[C@H](C)[C@@H]1NC(=O)[C@@H](CCCNC(=N)N)NC(=O)[C@H](CC(=O)O)NC(=O)[C@H](Cc2cnc[nH]2)NC(=O)CN(C)C(=O)[C@H](Cc2ccc(-c3ccc(NC(=O)c4ccccc4)cc3)cc2)NC(=O)[C@H](Cc2ccc(-c3ccc(C(=O)O)cc3)cc2)NC(=O)[C@H](CC2CCCCC2)NC(=O)CSC[C@@H](C(=O)NCC(N)=O)NC(=O)[C@H](CC(C)C)NC(=O)[C@H](Cc2cnc[nH]2)NC(=O)[C@H](C(C)C)NC(=O)[C@@H]2Cc3ccccc3CN2C1=O [Example 370] ({CH2CO}-[Cha][Bip(4'-COOH)][Bip(4'-NHBz)][Sar]HD[dR]I[Tic]VHLCG-NH2; thioether N-13),< 0.05
3,CC(C)C[C@@H]1NC(=O)[C@H](CCCNC(=N)N)NC(=O)[C@H](C(C)C)NC(=O)[C@@H]2CCCN2C(=O)[C@H](C(C)C)NC(=O)[C@@H](CCCNC(=N)NCc2cccc(-n3ccnc3)c2)NC(=O)[C@H](CC(=O)O)NC(=O)[C@@H]2CCCN2C(=O)CN(C)C(=O)[C@H](Cc2ccc(-c3ccc(NC(=O)c4nn(CC(=O)O)c5ccccc45)cc3)cc2)NC(=O)[C@H](Cc2ccc(-c3ccccc3)cc2)NC(=O)[C@H](CN2CCOCC2)NC(=O)CSC[C@@H](C(=O)NCC(N)=O)NC1=O [Example 470] ({CH2CO}-[Ala(morpholin-4-yl)][Bip][Bip(4'-NH)](Indazole3carbonyl(1-CH2COOH))[Sar]PD[X54]VPVRLCG-NH2; thioether N-13),< 0.05

# Same assay, conditions: HEK-Blue-CD40L cells, NF-kB-driven secreted alkaline phosphatase reporter; TNFα 0.5 ng/ml; 18 h; read-out: TNF induced HEK-Blue assay IC50 value
row,Structure (SMILES),IC50 [µM]
1,CC(=O)Nc1ccc(-c2ccc(C[C@@H]3NC(=O)[C@H](Cc4ccc(-c5ccc(C(=O)O)cc5)cc4)NC(=O)[C@H](CC4CCCCC4)NC(=O)CSC[C@@H](C(=O)NCC(N)=O)NC(=O)[C@H](CC(C)C)NC(=O)[C@H](Cc4ccc(O)cc4)NC(=O)[C@H](C(C)C)NC(=O)[C@@H]4CCCN4C(=O)[C@H](CC(N)=O)NC(=O)[C@@H](CCCNC(=N)N)NC(=O)[C@H](CC(=O)O)NC(=O)[C@@H]4CCCN4C(=O)CN(C)C3=O)cc2)cc1 [Example 247] ({CH2CO}-[Cha][Bip(4'-COOH)][Bip(4'-NHAc)][Sar]PD[dR]NPVYLCG-NH2; thioether N-13),0.05 to 0.2
2,CC(=O)Nc1ccc(-c2ccc(C[C@@H]3NC(=O)[C@H](Cc4ccc(-c5ccccc5)cc4)NC(=O)[C@H](CC4CCCCC4)NC(=O)CSC[C@@H](C(=O)NCC(N)=O)NC(=O)[C@H](CC(C)C)NC(=O)[C@H](Cc4ccc(O)cc4)NC(=O)[C@H](C(C)C)NC(=O)[C@@H]4CCCN4C(=O)[C@H]([C@H](C)N)NC(=O)[C@@H](CCCNC(=N)N)NC(=O)[C@H](CC(=O)O)NC(=O)[C@@H]4CCCN4C(=O)CN(C)C3=O)cc2)cc1 [Example 239] ({CH2CO}-[Cha][Bip][Bip(4'-NHAc)][Sar]PD[dR][Abu(3S-NH2)]PVYLCG-NH2; thioether N-13),0.05 to 0.2
3,CC(C)C[C@@H]1NC(=O)[C@H](Cc2ccc(O)cc2)NC(=O)[C@H](C(C)C)NC(=O)[C@@H]2Cc3ccccc3CN2C(=O)[C@H](C(C)C)NC(=O)[C@@H](CCCNC(=N)N)NC(=O)[C@H](CC(=O)O)NC(=O)[C@@H]2CCCN2C(=O)CN(C)C(=O)[C@H](Cc2ccc(-c3ccccc3)cc2)NC(=O)[C@H](Cc2ccc(-c3ccccc3)cc2)NC(=O)[C@H](CN2CCOCC2)NC(=O)CSC[C@@H](C(=O)NCC(N)=O)NC1=O [Example 81] ({CH2CO}-[Ala(morpholin-4-yl)][Bip][Bip][Sar]PD[dR]V[Tic]VYLCG-NH2; thioether N-13),0.05 to 0.2
4,CC(C)C[C@@H]1NC(=O)[C@H](CCCNC(=N)N)NC(=O)[C@H](C(C)C)NC(=O)[C@@H]2CCCN2C(=O)[C@H](C(C)C)NC(=O)[C@@H](CCCNC(=N)N)NC(=O)[C@H](CC(=O)O)NC(=O)[C@@]2(C)CCCN2C(=O)CN(C)C(=O)[C@H](Cc2ccc(-c3ccccc3)cc2)NC(=O)[C@H](Cc2ccc(-c3ccccc3)cc2)NC(=O)[C@H](CN2CCOCC2)NC(=O)CSC[C@@H](C(=O)NCC(N)=O)NC1=O [Example 103] ({CH2CO}-[Ala(morpholin-4-yl)][Bip][Bip][Sar][d(αMeP)]D[dR]VPVRLCG-NH2; thioether N-13),0.2 to 2
5,CC(=O)Nc1ccc(-c2ccc(C[C@@H]3NC(=O)[C@H](CN4CCOCC4)NC(=O)CSC[C@@H](C(=O)NCC(N)=O)NC(=O)[C@H](C(C)C)NC(=O)[C@H](CCCNC(=N)N)NC(=O)[C@H](C(C)C)NC(=O)[C@@H]4CCCN4C(=O)[C@H](C(C)C)NC(=O)[C@@H](CCCNC(=N)N)NC(=O)[C@H](CC(=O)O)NC(=O)[C@@H]4CCCN4C(=O)CN(C)C(=O)[C@H](Cc4ccc(-c5ccccc5)cc4)NC3=O)cc2)cc1 [Example 85] ({CH2CO}-[Ala(morpholin-4-yl)][Bip(4'-NHAc)][Bip][Sar]PD[dR]VPVRVCG-NH2; thioether N-13),0.2 to 2

# Second part, the molecule after the results:
row,IC50 [µM],Structure (SMILES)
1,0.05 to 0.2,CC(C)C[C@@H]1NC(=O)[C@H](Cc2ccc(O)cc2)NC(=O)[C@H](C(C)C)NC(=O)[C@@H]2Cc3ccccc3CN2C(=O)[C@H](C(C)C)NC(=O)[C@@H](CCCNC(=N)N)NC(=O)[C@H](CC(=O)O)NC(=O)[C@@H]2CCCN2C(=O)CN(C)C(=O)[C@H](Cc2ccc(-c3ccc(NC(=O)c4cccc(C(=O)O)c4)cc3)cc2)NC(=O)[C@H](Cc2ccc(-c3ccc(C(=O)O)cc3)cc2)NC(=O)[C@H](CC2CCCCC2)NC(=O)CSC[C@@H](C(=O)NCC(N)=O)NC1=O [Example 384] ({CH2CO}-[Cha][Bip(4'-COOH)][Bip(4'-(3-HOOC-benzamido))][Sar]PD[dR]V[Tic]VYLCG-NH2; thioether N-13)
2,0.05 to 0.2,CC(=O)Nc1ccc(-c2ccc(C[C@@H]3NC(=O)[C@H](Cc4ccc(-c5ccccc5)cc4)NC(=O)[C@H](CN4CCOCC4)NC(=O)CSC[C@@H](C(=O)N[C@@H](CCCCN)C(=O)O)NC(=O)[C@H](CC(C)C)NC(=O)[C@H](Cc4ccc(O)cc4)NC(=O)[C@H](C(C)C)NC(=O)[C@@H]4CCCN4C(=O)[C@H](C(C)C)NC(=O)[C@@H](CCCNC(=N)N)NC(=O)[C@H](CC(=O)O)NC(=O)[C@H](Cc4ccccn4)NC(=O)CN(C)C3=O)cc2)cc1 [Example 179] ({CH2CO}-[Ala(morpholin-4-yl)][Bip][Bip(4'-NHAc)][Sar][2Pal]D[dR]VPVYLCK-OH; thioether N-13)
3,0.2 to 2,CC(C)C[C@@H]1NC(=O)[C@H](CCCNC(=N)N)NC(=O)[C@H](C(C)C)NC(=O)[C@@H]2CCCN2C(=O)[C@H](C(C)C)NC(=O)[C@H](CCCNC(=N)N)NC(=O)[C@H](CC(=O)O)NC(=O)[C@@H]2C[C@@H](O)CN2C(=O)CN(C)C(=O)[C@H](Cc2ccc(-c3ccccc3)cc2)NC(=O)[C@H](Cc2ccc(-c3ccccc3)cc2)NC(=O)[C@H](Cc2ccccc2)NC(=O)CSC[C@@H](C(=O)NCC(N)=O)NC1=O [Example 44] ({CH2CO}-F[Bip][Bip][Sar][Hyp]DRVPVRLCG-NH2; thioether N-13)

# From patent publication US20250145665A1, “MACROCYCLIC PEPTIDES USEFUL AS MODULATORS OF TNF ALPHA” (Bristol-Myers Squibb Company, priority 2023, published 2025)
